Assay results reported in patent US20110158980A1, “METHODS TO TREAT AND SCREEN FOR AGENTS TO TREAT OBESITY” (TRUSTEES OF TUFTS COLLEGE, priority 2008, published 2011).

Key:
Type in all cases: cell-based
3T3-L1 adipocytes [1] = experiment: Amino acid uptake or output of adipocytes (HPLC of spent medium); conditions: 20 mM OXA; day 12 post-induction; positive value = uptake
Protocol: (§1) 3T3-L1 preadipocytes were plated onto 24-well plates and expanded in preadipocyte growth medium consisting of DMEM supplemented with calf serum (10% v/v), penicillin and streptomycin. Medium was replenished every other day. Two days post-confluence, the cells were induced to differentiate using an adipogenic cocktail (1 μg/ml insulin, 0.5 mM isobutylmethylxanthine, and 1 μM dexamethasone) added to a basal medium (DMEM with 10% fetal bovine serum and penicillin/streptomycin). After 48 hrs, the first medium was replaced with a second induction medium consisting of the basal adipocyte medium supplemented with only insulin. […] This basal medium was replenished every other day during the remainder of the culture experiments.
(§2) Metabolite measurements were performed both on cell lysates and spent medium samples as described previously (Si Y, Yoon J, Lee K. American journal of physiology 2007; 292:E1637-46). Cells were lysed in situ with an 0.1% SDS buffer and sonicated. Immediately after collection, the spent medium samples were cleaned of cell debris by a brief centrifugation step. Free glycerol, TG and free fatty acids (FFAs) were measured using enzymatic assay kits (SIGMA™). Glucose and lactate concentrations were measured using the methods of Trinder (Trinder P. J Clin Pathol 1969; 22:158-61) and Loomis (Loomis M E. J Lab Clin Med 1961; 57:966-9), respectively. Amino acids were quantified by HPLC using fluorescence-based detection following pre-column derivatization of primary or secondary amines with 6-aminoquinolyl-N-hydroxysuccinimidyl-carbamate (Cohen S A, De Antonis K M. J Chromatogr A 1994; 661:25-34). All metabolite data were normalized by the corresponding cell sample DNA content, which was determined with a fluorescence-based assay using the Hoechst dye.

3T3-L1 adipocytes [2] = experiment: Metabolite assays (TG, FFA, glucose, lactate, glycerol) on cell lysates and spent medium; conditions: 20 mM oxamate, day 12 post-induction
Protocol: as §1, §2

3T3-L1 adipocytes [3] = experiment: Metabolic flux analysis (stoichiometric model) of adipocyte intermediary metabolism; conditions: OXA 20 mM; day 12 post-induction
Protocol: as §1
A stoichiometric model of adipocyte central carbon metabolism was constructed as described previously (Si Y, Yoon J, Lee K. American journal of physiology 2007; 292:E1637-46). The model consisted of the major pathways of central carbon metabolism (Table 1). Intracellular fluxes were estimated by solving a constrained non-linear optimization problem with stoichiometric and thermodynamic constraints (Nolan R P, Fenley A P, Lee K. Metab Eng 2006; 8:30-45).

## NC(=O)C(=O)O [oxamate]
3T3-L1 adipocytes [1]
  ALA uptake or output: 0.6 ± 0.0 mmol/g-DNA/2 days
  ASN uptake or output: −1.1 ± 0.2 mmol/g-DNA/2 days
  ASP uptake or output: 0.0 ± 0.0 mmol/g-DNA/2 days
  GLN uptake or output: −12.0 ± 1.5 mmol/g-DNA/2 days
  GLU uptake or output: 0.4 ± 0.0 mmol/g-DNA/2 days
  GLY uptake or output: −5.9 ± 0.4 mmol/g-DNA/2 days
  HIS uptake or output: −0.2 ± 0.1 mmol/g-DNA/2 days
  ILE uptake or output: 6.1 ± 0.3 mmol/g-DNA/2 days
  LEU uptake or output: 6.8 ± 0.3 mmol/g-DNA/2 days
  LYS uptake or output: −2.0 ± 0.3 mmol/g-DNA/2 days
  MET uptake or output: 0.0 ± 0.0 mmol/g-DNA/2 days
  PHE uptake or output: −0.3 ± 0.1 mmol/g-DNA/2 days
  PRO uptake or output: −0.5 ± 0.0^ mmol/g-DNA/2 days
  SER uptake or output: 4.0 ± 0.2 mmol/g-DNA/2 days
  THR uptake or output: −1.4 ± 0.3^ mmol/g-DNA/2 days
  TYR uptake or output: −0.3 ± 0.1 mmol/g-DNA/2 days
  VAL uptake or output: 3.3 ± 0.2 mmol/g-DNA/2 days
3T3-L1 adipocytes [2]
  Glycerol output raised: 1.3 fold
  Reduction of glucose uptake: 20%
3T3-L1 adipocytes [2]; Mus musculus, 3T3-L1, vs untreated control, read-out: Inhibition of lactate output
  inhibition at 20000 µM: 40%
3T3-L1 adipocytes [3]
  Flux RXN 1 Glycolysis: Glucose + ATP = Glucose 6-P + ADP: 212.3 ± 15.3 mmol/g-DNA/2 days
  Flux RXN 2 Glycolysis: Glucose 6-P = Fructose 6-P: 205.0 ± 14.2 mmol/g-DNA/2 days
  Flux RXN 3 Glycolysis: Fructose 6-P + ATP = Glyceraldehyde 3-P + Glycerone-P + ADP: 209.9 ± 14.8 mmol/g-DNA/2 days
  Flux RXN 4 Glycolysis: Glycerone-P = Glyceraldehyde 3-P: 187.8 ± 13.9 mmol/g-DNA/2 days
  Flux RXN 5 Glycolysis: Glyceraldehyde 3-P + NAD+ + ADP + Pi = P-Enolpyruvate + ATP + H2O: 400.1 ± 28.6 mmol/g-DNA/2 days
  Flux RXN 6 Glycolysis: P-Enolpyruvate + ADP + H+ = Pyruvate + ATP: 463.5 ± 35.6 mmol/g-DNA/2 days
  Flux RXN 7 Glycolysis: Pyruvate + NADH + H+ = Lactate + NAD+: 119.2 ± 9.1 mmol/g-DNA/2 days
  Flux RXN 8 Pentose phosphate pathway: Glucose 6-P + 2 NADP+ + H2O = Ribulose 5-P + CO2 + 2 NADPH + 2 H+: 7.3 ± 4.6 mmol/g-DNA/2 days
  Flux RXN 9 Pentose phosphate pathway: 3 Ribulose 5-P = 2 Fructose 6-P + Glyceraldehyde 3-P: 2.4 ± 1.5 mmol/g-DNA/2 days
  Flux RXN 10 TCA cycle (mitochondria) (PDC): 290.4 ± 25.6 mmol/g-DNA/2 days
  Flux RXN 11 TCA cycle (mitochondria) (PC): 109.1 ± 31.7 mmol/g-DNA/2 days
  Flux RXN 12 TCA cycle (mitochondria): 185.0 ± 19.7 mmol/g-DNA/2 days
  Flux RXN 13 TCA cycle (mitochondria): 226.7 ± 26.2 mmol/g-DNA/2 days
  Flux RXN 14 TCA cycle (mitochondria): 236.0 ± 26.3 mmol/g-DNA/2 days
  Flux RXN 15 TCA cycle (mitochondria): 236.0 ± 26.3 mmol/g-DNA/2 days
  Flux RXN 16 TCA cycle (mitochondria): 181.2 ± 40.8 mmol/g-DNA/2 days
  Flux RXN 17 TCA cycle: Citrate + CoA + ATP = Acetyl-CoA + Oxaloacetate + ADP + Pi: 63.7 ± 12.9 mmol/g-DNA/2 days
  Flux RXN 18 TCA cycle: Oxaloacetate + NADH + H+ = Malate + NAD+: 0.3 ± 0.8 mmol/g-DNA/2 days
  Flux RXN 19 TCA cycle: Malate + NADP+ = Pyruvate + CO2 + NADPH: 55.2 ± 20.8 mmol/g-DNA/2 days
  Flux RXN 20 TCA cycle: Citrate + NADP+ = 2-Oxoglutarate + CO2 + NADPH + H+: 41.6 ± 9.1 mmol/g-DNA/2 days
  Flux RXN 21 TCA cycle: Oxaloacetate + ATP = P-Enolpyruvate + CO2 + ADP: 63.4 ± 12.9 mmol/g-DNA/2 days
  Flux RXN 22 Oxidative phosphorylation (NADH + 0.5 O2): 770.4 ± 108.2 mmol/g-DNA/2 days
  Flux RXN 23 Oxidative phosphorylation (FADH2 + 0.5 O2): 252.2 ± 26.4 mmol/g-DNA/2 days
  Flux RXN 24 Palmitate biosynthesis: 8.0 ± 1.6 mmol/g-DNA/2 days
  Flux RXN 25 Tripalmitoylglycerol biosynthesis: Glycerone-P + 3 Palmitate to Tripalmitoylglycerol: 22.1 ± 4.8 mmol/g-DNA/2 days
  Flux RXN 26 Tripalmitoylglycerol + 3 H2O = Glycerol + 3 Palmitate: 19.8 ± 4.4 mmol/g-DNA/2 days
  Flux RXN 27 Tripalmitoylglycerol accumulation: 2.3 ± 0.5 mmol/g-DNA/2 days
